{
  "source": "patent US20190183908A1",
  "about": "(priority 2016, published 2019)",
  "key": {"[1]": {"system": "nitrogen mustard exposed mice", "conditions": "mouse, in vivo, ip; cited from earlier work"}, "M2:M1 macrophage ratio": {"system": "M2:M1 macrophage ratio", "parameters": "species or system mice", "conditions": "mouse, in vivo"}, "[2]": {"system": "LC3 in CD206+ macrophages", "parameters": "species or system mice", "conditions": "mouse, in vivo"}, "[3]": {"system": "LC3 in F4/80+ macrophages", "parameters": "species or system mice", "conditions": "mouse, in vivo"}, "UV induced apoptosis": {"system": "UV induced apoptosis", "conditions": "mouse, in vivo"}, "UV irradiated mice": {"system": "UV irradiated mice", "parameters": "species or system C57BL/6 mice", "conditions": "mouse, in vivo"}, "MMP9": {"system": "MMP9", "parameters": "species or system mice", "conditions": "mouse, in vivo"}, "TNF-α [4]": {"system": "TNF-α", "parameters": "species or system mice", "conditions": "mouse, in vivo"}, "CD206+ M2 macrophages": {"system": "CD206+ M2 macrophages", "parameters": "species or system mice", "conditions": "mouse, in vivo"}, "iNOS [5]": {"system": "iNOS", "parameters": "species or system mice", "conditions": "mouse, in vivo"}, "Arginase1": {"system": "Arginase1", "parameters": "species or system mice", "conditions": "mouse, in vivo"}, "[6]": {"system": "UVR-irradiated skin of healthy adults", "parameters": "species or system human", "conditions": "in vivo"}, "Valchlor-exposed skin [7]": {"system": "Valchlor-exposed skin", "conditions": "human, in vivo"}, "IL-6": {"system": "IL-6", "parameters": "species or system human", "conditions": "in vivo, po"}, "[8]": {"system": "UVR-irradiated skin of healthy adults", "parameters": "species or system human", "conditions": "in vivo", "remark": "listed apart in the source"}, "TNF-α [9]": {"system": "TNF-α", "parameters": "species or system human", "conditions": "in vivo, po"}, "[10]": {"system": "UVR-irradiated skin of healthy adults", "format": "in vivo, human", "conditions": "N=4"}, "[11]": {"system": "LC3 in CD163+ macrophages", "parameters": "species or system human", "conditions": "in vivo, po"}, "Valchlor-exposed skin [12]": {"system": "Valchlor-exposed skin", "format": "in vivo, human"}, "COX-2": {"system": "COX-2", "parameters": "species or system human", "conditions": "in vivo, po"}, "iNOS [13]": {"system": "iNOS", "parameters": "species or system human", "conditions": "in vivo, po"}, "TNF-α [14]": {"system": "TNF-α", "parameters": "species or system human", "conditions": "in vivo, po", "remark": "listed apart in the source"}, "arginase-1": {"system": "arginase-1", "parameters": "species or system human", "conditions": "in vivo"}, "Valchlor-exposed skin [15]": {"system": "Valchlor-exposed skin", "parameters": "species or system human", "conditions": "in vivo"}},
  "note": "“Also recorded” adds a separate entry of the source.",
  "data": [
    {"molecule": "25(OH)D", "values": [
      {"measurement": "Acute skin and systemic inflammation, tissue damage and mortality", "setting": "[1]", "result": "sufficient to prevent acute skin and systemic inflammation and rescue mice from extensive tissue damage and mortality"},
      {"measurement": "M2:M1 ratio", "setting": "M2:M1 macrophage ratio", "result": "significantly altered"},
      {"measurement": "M2:M1 ratio in presence or absence of VD", "setting": "M2:M1 macrophage ratio", "result": "comparable"},
      {"measurement": "LC3+CD206+ cells in the dermis", "setting": "[2]", "result": "significantly increased number of cells"},
      {"measurement": "Elevation of macrophage-specific autophagy (LC3 punctae) compared to UV induced autophagy", "setting": "[3]", "result": 5, "unit": "fold"},
      {"measurement": "UV mediated apoptotic cell death (TUNEL+ cells)", "setting": "UV induced apoptosis", "result": "significantly diminished"},
      {"measurement": "Skin inflammation, wound progression and histological architecture", "setting": "UV irradiated mice; ip", "result": "prevented excessive cutaneous damage; also recorded: delayed skin inflammation, arrested skin wound progression and accelerated wound repair; also recorded: protects from UV induced necrosis, dyskeratosis and vacuolation of the basal layer"},
      {"measurement": "Gene expression of MMP9", "setting": "MMP9", "result": "sustained inhibition; also recorded: significantly suppressed; also recorded: suppresses"},
      {"measurement": "Gene expression of TNF (TNF-α)", "setting": "TNF-α [4]", "result": "sustained inhibition; also recorded: significantly suppressed; also recorded: suppresses"},
      {"measurement": "M2 macrophages (CD206+) relative to M1", "setting": "CD206+ M2 macrophages", "result": "more M2 cells co-localizing with LC3; also recorded: expands the M2 compared to M1"},
      {"measurement": "Gene expression of iNOS (NOS2)", "setting": "iNOS [5]", "result": "significantly suppressed; also recorded: suppresses"},
      {"measurement": "arg1 staining in CD206+ cells", "setting": "Arginase1", "result": "selectively stain for arg1 in CD206+ cells"}
    ]},
    {"molecule": "Cn1cnc(N)c2ncnc1-2", "note": "[3-MA, 3-methyladenine]", "values": [
      {"measurement": "LC3 expression in skin under inhibition of autophagy", "setting": "[2]", "result": "abolished LC3 expression"},
      {"measurement": "UV induced and VD induced autophagy", "setting": "[3]", "result": "inhibited"},
      {"measurement": "UV-induced inflammation / VD mediated protection under blockade of autophagy", "setting": "UV irradiated mice", "result": "exacerbated UV-induced inflammation; also recorded: reversed VD mediated protection from inflammation"},
      {"measurement": "MMP9 under blockade of autophagy", "setting": "MMP9", "result": "increasing"},
      {"measurement": "TNF-α under blockade of autophagy", "setting": "TNF-α [4]", "result": "increasing"},
      {"measurement": "M2 macrophages / cellular profile under blockade of autophagy", "setting": "CD206+ M2 macrophages", "result": "depleted functional M2 macrophages; also recorded: recapitulates cellular profile observed with UV while quenching LC3 expression"},
      {"measurement": "arg1 expression in CD206+ cells under inhibition of autophagy", "setting": "Arginase1", "result": "diminished arg1 expression"}
    ]},
    {"molecule": "C=C1CC[C@H](O)C/C1=C/C=C1\\CCC[C@]2(C)[C@@H]([C@H](C)CCCC(C)C)CC[C@@H]12", "note": "[vitamin D3, cholecalciferol]", "values": [
      {"measurement": "Histologic structural damage (epidermal vesiculation, edema formation)", "setting": "[6]", "result": "improved"},
      {"measurement": "Net skin symptom Irritation, Day 0", "setting": "Valchlor-exposed skin [7]", "result": 1.0},
      {"measurement": "Net skin symptom Irritation, Day 1", "setting": "Valchlor-exposed skin [7]", "result": 0.5},
      {"measurement": "Net skin symptom Irritation, Day 2", "setting": "Valchlor-exposed skin [7]", "result": 1.1},
      {"measurement": "Net skin symptom Irritation, Day 3", "setting": "Valchlor-exposed skin [7]", "result": 0.8},
      {"measurement": "Net skin symptom Irritation, Day 4", "setting": "Valchlor-exposed skin [7]", "result": 0.5},
      {"measurement": "Net skin symptom Irritation, Day 5", "setting": "Valchlor-exposed skin [7]", "result": 0.1},
      {"measurement": "Net skin symptom Irritation, Day 6", "setting": "Valchlor-exposed skin [7]", "result": "−0.2"},
      {"measurement": "Net skin symptom Irritation, Slope", "setting": "Valchlor-exposed skin [7]", "result": "−0.1202 ± 0.05"},
      {"measurement": "Net skin symptom Warmth, Day 0", "setting": "Valchlor-exposed skin [7]", "result": 1.0},
      {"measurement": "Net skin symptom Warmth, Day 1", "setting": "Valchlor-exposed skin [7]", "result": 0.5},
      {"measurement": "Net skin symptom Warmth, Day 2", "setting": "Valchlor-exposed skin [7]", "result": "−0.2"},
      {"measurement": "Net skin symptom Warmth, Day 3", "setting": "Valchlor-exposed skin [7]", "result": 0.0},
      {"measurement": "Net skin symptom Warmth, Day 4", "setting": "Valchlor-exposed skin [7]", "result": "−1.0"},
      {"measurement": "Net skin symptom Warmth, Day 5", "setting": "Valchlor-exposed skin [7]", "result": 0.3},
      {"measurement": "Net skin symptom Warmth, Day 6", "setting": "Valchlor-exposed skin [7]", "result": "−0.3"},
      {"measurement": "Net skin symptom Warmth, Slope", "setting": "Valchlor-exposed skin [7]", "result": "−0.1296 + 0.083"},
      {"measurement": "Patient reported skin symptoms (warmth, irritation)", "setting": "Valchlor-exposed skin [7]", "result": "demonstrable reduction; also recorded: decreased"},
      {"measurement": "Skin pain, burning sensation, and itch", "setting": "Valchlor-exposed skin [7]", "result": "no observable difference"},
      {"measurement": "Reduction in IL-6", "setting": "IL-6", "result": 112, "unit": "%"},
      {"measurement": "Skin thickness after irradiation with higher doses", "setting": "[8]", "result": "trend for decreased skin thickness"},
      {"measurement": "Skin expression of TNF-α compared to placebo", "setting": "TNF-α [9]", "result": "reduced expression; also recorded: lower"},
      {"measurement": "Erythema Δa*24 hr, Mean (95% CI)", "setting": "[10]", "result": "2.0 (−2.1.6.1)"},
      {"measurement": "LC3 co-localized with CD163+ macrophages in human skin", "setting": "[11]", "result": "upregulates cells that co-localize LC and CD163; also recorded: enhanced LC3"},
      {"measurement": "Reduction in skin vesication on histology", "setting": "Valchlor-exposed skin [12]; in vivo, po", "result": 50, "unit": "%"},
      {"measurement": "Vesication by histology", "setting": "Valchlor-exposed skin [12]; n=2", "result": 0, "unit": "%"},
      {"measurement": "Reduction in COX-2", "setting": "COX-2", "result": 80, "unit": "%"},
      {"measurement": "Skin expression of iNOS compared to placebo", "setting": "iNOS [13]", "result": "reduced expression; also recorded: lower"},
      {"measurement": "Reduction in TNF-α", "setting": "TNF-α [14]", "result": 66, "unit": "%"},
      {"measurement": "Arginase-1 protein expression localized to CD163+ macrophages", "setting": "arginase-1", "result": "increased expression"},
      {"measurement": "Skin thickness (arm 2 − arm 1) compared to placebo", "setting": "Valchlor-exposed skin [15]", "result": "trend in decreasing thickness; also recorded: reduction in skin thickness"}
    ]}
  ]
}
